According to patent publication US20260306403A1, “MODIFIED LIPOSOME FOR DRUG DELIVERY, USE OF LIPOSOME FOR DRUG DELIVERY, ESPECIALLY WITH ANTI-CANCER ACTIVITY, AND WAYS TO LOAD LIPOSOME WITH DRUGS, ESPECIALLY WITH ANTI-CANCER ACTIVITY” (BS BIOTECHNA SPOLKA AKCYJNA, priority 2023, published 2026):

Tests used:
[1] = Acute toxicity test on Zebrafish larvae, emetine and 14 pH EM liposomes, 24 and 48 h; parameters: species or system Zebrafish (Danio rerio); settings: in vivo, 48 h exposure, 2 dpf larvae, calculated for emetine, read-out: half maximal lethal concentration (LC50)
Procedure: In order to compare the toxicity of emetine and 14 pH EM liposomes with emetine, an acute toxicity test was conducted on Zebrafish (Danio rerio). The test was designed to determine the acute or lethal toxicity of the formulations on the embryonic stages of the fish. Briefly, Zebrafish 2 dpf larvae were treated with emetine and 14 pH EM liposomes with emetine for 24 and 48 hours at concentrations ranging from 0.73 μM to 125 μM calculated for emetine. […] The water for embryo culture and solution preparation was embryo culture medium (E3 solution: 5 mmol/L NaCl, 0.17 mmol/L KCl, 0.33 mmol/L CaCl2 and 0.33 mmol/L MgSO4, containing no methylene blue, and with a pH value of approximately 7.2). The experiment was carried out in 24-well plates, 5 embryos per well, 10 per group. The plate was covered and kept in an incubator set at 28±0.5° C. with a light/dark period of 12/12 hours. During the exposure period, larvae were tracked every 24 hours and four visual observations, including coagulation of fertilised eggs, lack of somite formation, lack of separation of tail bud from yolk sac and lack of heartbeat, were recorded as indicators of mortality.

Zebrafish larvae = assay: Absorption of fluorescently labelled emetine, free and in pH-type liposomes, by Zebrafish larvae; format: in vivo
Procedure: To compare the uptake of emetine and pH-type liposomes with emetine, Zebrafish larvae were exposed to fluorescently labelled free emetine and fluorescently labelled emetine encapsulated in pH-type liposomes (synthesis identical to that of 14pHEM) for 4 and 48 h in a concentration range from 0.73 μM to 14.7 μM for emetine and 4.41 μM to 8.82 μM for pH-type liposomes with fluorescent emetine per emetine. Photographs of fish from each group were taken at the final time point to monitor the intensity of fluorescence from absorbed emetine. A Discovery V8 stereoscopic optical microscope and Zeiss equipment were used for the observations.

[2] = phase I and II clinical trials; cited from earlier work
[3] = Acute toxicity test on Zebrafish larvae, emetine / BEM and staurosporine / BST liposomes, 96 h; format: in vivo, Zebrafish (Danio rerio); settings: 96 h incubation, staurosporine free or in BST
Procedure: In order to compare the toxicity of emetine and staurosporine with the same drugs loaded into BpH liposomes, an acute toxicity test was conducted on Zebrafish (Danio rerio). The test was designed to determine the acute or lethal toxicity of the chemicals on the embryonic stages of the fish. Briefly, zebrafish larvae were treated with emetine and […] liposomes or staurospoine and staurosporine with BST liposomes for a period of 96 hours.
The embryo culture fluid and solution preparation was embryo culture medium (E3 solution: 5 mmol/L NaCl, 0.17 mmol/L KCl, 0.33 mmol/L CaCl2 and 0.33 mmol/L MgSO4, containing no methylene blue, and with a pH value of approximately 7.2). The experiment was carried out in 24-well plates, 5 embryos per well, 10 per group. The plate was covered and kept in an incubator set at 28±0.5° C. with a light/dark period of 12/12 hours. During the exposure period, larvae were tracked every 24 h and four visual observations, including coagulation of fertilised eggs, lack of somite formation, lack of separation of tail bud from yolk sac and lack of heartbeat, were recorded as indicators of mortality. At the end of the exposure period (96 hpf), acute toxicity was determined based on a positive result from any of the four recorded visual observations and the LC50 was calculated. Liposomes alone without drug loading were also tested.

SMILES	LC50 at 48 h [1]	location of absorbed emetine in larvae (Zebrafish larvae; fluorescence microscopy)	uptake / amount of absorbed emetine (Zebrafish larvae; free 1.47, 3.67, 7.35 μM, in liposomes 4.41 and 8.82 μM)	therapeutic index [2]	toxicity on increasing the dose [2]	LC50 at 96 h [3]
CC[C@H]1CN2CCc3cc(OC)c(OC)cc3[C@@H]2C[C@@H]1C[C@H]1NCCc2cc(OC)c(OC)cc21 [emetine]	5.64 µM	within the yolk of the larvae, especially in the liver and intestine region	increases with dose	very limited	cardiac toxicity	–
CN[C@@H]1C[C@H]2O[C@@](C)([C@@H]1OC)n1c3ccccc3c3c4c(c5c6ccccc6n2c5c31)C(=O)NC4 [staurosporine]	–	–	–	–	–	17 nM
